Experimental data reported in patent US6562853B2, “2,5-dioxo-3-(2-propynyl)imidazolidin-1-ylmethyl 2,2-dimethyl-3-(alenyl) cyclopropane carboxylate compounds and pesticidal methods and compositions utilizing the same” (Sumitomo Chemical Company, Limited, priority 2001, dated 2003).

Experiments:
[1] = test system: adult female common mosquitoes; experiment: Knockdown of common mosquitoes by oily formulation sprayed into 70 cm cubic chamber (Test Example 3); type: in vivo, common mosquito (Culex pipiens pallens); conditions: 0.00625% oily formulation, 0.7 ml sprayed into 70 cm cubic chamber; 10 adult female common mosquitoes; counted over 10 minutes
Text: Three (3) 0.00625% oily formulations were produced with the following pesticidal compounds: […]
In the compound encompassed by formula (A), the weight ratio of trans isomers thereof to the cis isomers thereof is 8:2. The 0.00625% oily formulations were produced by dissolving, respectively, 0.00625 parts of the above pesticidal compounds in 10 parts of dichloromethane and by mixing each of the resulting mixture with 89.99375 parts of deodorized kerosene.
Ten (10) adult female common mosquitoes were released in each of the cubic chambers having a side length of 70 cm. Seven-tenths milliliters (0.7 ml) of the 0.00625% oily formulations were then sprayed, respectively, into each of the chambers from the side windows of the chambers, utilizing spray guns set to a pressure of 8.8×10^4 Pa. The numbers of knockdowned common mosquitoes were counted periodically over 10 minutes. The times utilized to knockdown half of the tested common mosquitoes (KT50) were determined from the number of knockdowned common mosquitoes.

Adult houseflies [2] = experiment: Knockdown of houseflies by oily formulation sprayed into 70 cm cubic chamber (Test Example 1); type: in vivo, housefly (Musca domestica); conditions: 0.025% oily formulation, 0.7 ml sprayed into 70 cm cubic chamber; 5 male and 5 female adult houseflies; counted over 10 minutes
Description: A 0.025% oily formulation was produced by dissolving 0.025 parts of the present invention compound 1 in 10 parts of dichloromethane and by mixing the resulting mixture with 89.975 parts of deodorized kerosene.
Adult houseflies (5 of each male and female) were released in a cubic chamber having a side length of 70 cm. Seven-tenths milliliters (0.7 ml) of the 0.025% oily formulation was then sprayed into the chamber from a side window of the chamber, utilizing a spray gun set to a pressure of 8.8×10^4 Pa. The number of knockdowned houseflies was counted periodically over 10 minutes. The time utilized to knockdown half of the tested houseflies (KT50) was determined from the number of knockdowned houseflies. The KT50 was 2.3 minutes.

Adult houseflies [3] = experiment: Knockdown rate of houseflies in plastic cup after direct spray of oily formulation (Test Example 2); type: in vivo, housefly (Musca domestica); conditions: 0.1% oily formulation (table), 0.5 ml sprayed from about 30 cm above cup; 10 adult houseflies; counted 10 seconds thereafter
Description: A 0.1% oily formulation was produced by dissolving 0.1 part of the present invention compound 1 in 10 parts of dichloromethane and by mixing the resulting mixture with 89.9 parts of deodorized kerosene.
Ten (10) adult houseflies (5 of each male and female) were placed in a 650 ml plastic cup. The opening of the plastic cup was covered with a nylon mesh to confine the houseflies to the plastic cup. The plastic cup was placed on top of a metal screen placed in a metal chamber having the dimensions 46 cm×46 cm×70 cm. Five-tenths milliliters (0.5 ml) of the […] oily formulation was then sprayed from about 30 cm above the top area of the plastic cup, utilizing a spray gun set to a pressure of 8.8×10^4 Pa. The number of knockdowned houseflies were counted 10 seconds thereafter. The knockdown rate was determined from the number of knockdowned houseflies achieved. The knockdown rate was 95%.

Structure (SMILES) | KT50 (time utilized to knockdown half of the tested common mosquitoes) [1] [min] | KT50 (time utilized to knockdown half of the tested houseflies) (Adult houseflies [2]) [min] | Knockdown rate (Adult houseflies [3]) [%]
C#CCN1CC(=O)N(COC(=O)C2C(C=C(C)C)C2(C)C)C1=O (single isomer, unassigned) [Compound c, reference compound] | 2.9 | – | –
C#CCN1CC(=O)N(COC(=O)[C@@H]2[C@@H](/C=C\C)C2(C)C)C1=O [Present invention compound 1, 2,5-dioxo-3-(2-propynyl)imidazolidin-1-ylmethyl (1R)-trans-2,2-dimethyl-3-((Z)1-propenyl)cyclopropanecarboxylate] | 0.99 | 2.3 | 95
C#CCN1CC(=O)N(COC(=O)[C@@H]2[C@H](/C=C\C)C2(C)C)C1=O [Present invention compound 3, 2,5-dioxo-3-(2-propynyl)imidazolidin-1-ylmethyl (1R)-cis-2,2-dimethyl-3-((Z)1-propenyl)cyclopropanecarboxylate] | 1.4 | – | –
